Earlier results in patent publication US20100056547A1, “OPHTHALMIC COMPOSITIONS COMPRISING dDC” (ALLERGAN, INC., priority 2005, published 2010).

Experiments:
adenoviral strains = details: for inhibition of adenoviral strains: Kaneko et al., J. Jpn. Ophthalmol. Soc. 107:196-201 (2003)
viral conjunctivitis = details: topical ophthalmic administration; Gordon et al., Cornea 15(5): 546, 1996

Nc1ccn(C[C@@H](CO)OCP(=O)(O)O)c(=O)n1 [HPMPC]
inhibition of adenoviral strains (adenoviral strains): inhibited adenoviral strains

CCCCCCCCCCCCCCCCCCCCCCOCC(C)(COCCCCCCCCCCCCCCCCCCCCCC)CO[C@]1(C(=O)O)C[C@H](OS(=O)(=O)O)[C@@H](NC(C)=O)[C@H]([C@H](OS(=O)(=O)O)[C@@H](COS(=O)(=O)O)OS(=O)(=O)O)O1 [NMSO3]
inhibition of adenoviral strains (adenoviral strains): inhibited adenoviral strains | EC50 values (ranking among NMSO3, HPMPC, dDC) (adenoviral strains; adenoviral strains, Kaneko et al. 2003): lowest

Nc1ccn(C[C@@H](CO)OCP(=O)(O)O)c(=O)n1 [cidofavir]
effectiveness in treating viral conjunctivitis (viral conjunctivitis): effective

Nc1ccn([C@H]2CC[C@@H](CO)O2)c(=O)n1 [dDC, 2′,3′-Dideoxycytidine]
inhibition of adenoviral strains (adenoviral strains): inhibited adenoviral strains
